According to patent publication US5578575A, “Partially modified and retro-inverted tetrapeptides analogues of C-reactive protein fragments” (Italfarmaco S.P.A., priority 1992, dated 1996):

Experiments:
BALB/C mice = assay: In vivo protection against septic shock (LPS-inoculated mice, survival); details: LPS 50 mg/kg i.p., compound at time 0 or 30 minutes after LPS, checked for 8 days
Experimental: Evaluation of the in vivo protection against septic shock
BALB/C mice (6 mice/group) weighting between 20 and 25 g, were intraperitoneally inoculated with 50 mg/kg of LPS (lipopolysaccharide-Sigma). The groups, except for the control, were inoculated with increasing doses of one of the compounds of the invention dissolved in physiologic solution having a final volume of 0.5 ml, at time 0 (i.e. together with LPS) or 30 minutes after the LPS inoculation. The mice were checked for 8 days to determined the survival percentage. Compound of Example 1 yields a survival percentage of about 65% at doses of 6.2 ug/mouse and 0.62 ug/mouse, and its isomer B yields a survival percentage of about 80% at a dose of 6.25 ug/mouse and of 75% at a dose of 62.5 ug/mouse.

[1] = tested on: murine peritoneal macrophages; assay: Stimulation of IL-1 production by murine peritoneal macrophages (ELISA); assay type: cell-based, BALB/C mice; details: 96 h; for IL-1 production, Stimulation index: with respect to control; for IL-1 production, U/ml: control 15
Source text: Stimulation of IL-1 production by murine peritoneal macrophages Murine peritoneal macrophages were obtained by inoculation of a solution of hydrolized starch (BDH Chemicals, Poole, Dorset, UK) into the peritoneal cavity of BALB/C mice, three days before sacrificing the animals. The peritoneal cells were then collected by washing the peritoneal cavity with a solution of RPMI 1640 containing 10% of FCS, and resuspended in the same solution at a concetration of 10^6 cells/ml in 96-well plates. The incubation was performed for 96 hours at 37° C. in the presence of the compounds in question. At the end of the treatment the supernatants were collected and used for dosing cytokine by means of a suitable ELISA commerical kit (Genzyme, Boston, Mass., USA).

murine splenocytes = assay: Stimulation of in vitro IFN-.tau. production by murine splenocytes (ELISA); assay type: cell-based, BALB/C mice; details: for IFN-.tau. production, Stimulation index / IFN-.tau. production, U/ml: 24 h; for IFN-.tau. production, Stimulation index: with respect to control; for IFN-.tau. production, U/ml: control 31 (Ex. 1, Ex. 2), 41 (Ex. 3)
Experimental: Stimulation of in vitro IFN-.tau.production by murine splenocytes The splenic cells were obtained from spleen of BALB/C mice as single cells suspension. The splenocytes thus obtained were resuspended in RPMI 1640 culture medium (Flow Lab., Hertz, UK) containing 5% of fetal calf serum (FCS) (HyClone, ST, Utah, USA) at a final concentrazione of 10^7 cells/ml, and incubated in 96-well plates for 24 hours at 37° C. in the presence of the tested compounds at the indicated concentration. At the end of the incubation the supernatant was collected, filtered by […] filter and freezed to -80° C. until the time of the test carried out by ELISA commercial kit (Genzyme, Boston, Mass., USA).

murine peritoneal cells = assay: Stimulation of the nitric oxide by murine peritoneal cells (chemiluminescence); assay type: cell-based, BALB/C mice; details: 96 h, with LPS 30 μg/ml; for nitric oxide, Stimulation index: with respect to control; for nitric oxide content: control 20
Experimental: Stimulation of the nitric oxide by murine peritoneal cells The peritoneal cells were obtained as described in the previous test, and incubated for 96 hours at 37° C. in the presence of the compounds in question and of lipopolysaccharide at a concentration of 30 μg/ml. At the end of the treatment the supernatants were collected and the nitric oxide content was determined by the chemiluminescence test described by Palmer R. M. J. et al, Nature, 327, 524, 1987.

Leishmania major = assay: Effect on the leishmanicidal activity of murine peritoneal macrophage (3H-thymidine incorporation by living parasites); assay type: cell-based; details: for cpm (counts per minute), 3H-thymidine incorporation by living parasites: control 18,273
Experimental: Effect on the leishmanicidal activity of murine peritoneal macrophage The peritoneal cells collected as described above were seeded in 96-well flat bottom plates (Nunc, Roskiled, DK) at a concentration of 10^5 […]; and incubated per 24 hours at 37° C. At the end of the treatment, the cells not adherent to the well were separated and discharged, whereas the adherent cells were washed three time with culture medium and incubated for 24 hours with the compounds in question, then the cells were infected through a 24 hours incubation with promastigotes of Leishmania major (L. major, PVL49 strain supplied by Dr. Neal R. A., London School of Hygiene and Tropical Medicine, London, UK). At the end of the infection treatment each well was added with 100 μl of a 0.01% solution od sodium dodecylsulphate in RPMI 1640, and the plates were incubated for 30 minutes at 37° C. The Schneider's culture medium (Schneider Drosophila medium, Gibco Lab., Grand Island, N.Y., USA) with 30% of FCS was added. Each well was added with 1 μCi of ^3 H-thymidine, and a 72 hours incubation was carried out at 37° C. The incorporation of radioactivity by the living parasites inside the peritoneal cells, which is correlated to the infection degree and consequently to the leishmanicidal activity of the cells, was measured by collecting the cells by means of a cell-harvester and measuring the radioactivity with liquid scintillation β-counter.

N=C(N)NCCC[C@H](NC(=O)[C@@H]1CCCN1C(=O)C(CCCCN)C(=O)NCN)C(=O)O (single isomer, unassigned) [ITF 1358]
survival percentage (BALB/C mice; 6.25 ug/mouse): about 80% | survival percentage (BALB/C mice; 62.5 ug/mouse): 75%

N=C(N)NCCC[C@H](NC(=O)[C@@H]1CCCN1C(=O)C(CCCCN)C(=O)NCN)C(=O)O (single isomer, unassigned) [Example 1]
IL-1 production, Stimulation index ([1]; 0.01 μg/ml): 0.4 | IL-1 production, U/ml ([1]; 0.01 μg/ml): 6 U/ml | IL-1 production, Stimulation index ([1]; 0.1 μg/ml): 0.1 | IL-1 production, U/ml ([1]; 0.1 μg/ml): 2 U/ml | IL-1 production, Stimulation index ([1]; 1.0 μg/ml): 0.1 | IL-1 production, U/ml ([1]; 1.0 μg/ml): 2 U/ml | IL-1 production, Stimulation index ([1]; 10.0 μg/ml): 0,1 | IL-1 production, U/ml ([1]; 10.0 μg/ml): 2 U/ml | IFN-.tau. production, Stimulation index (murine splenocytes; 0.1 μg/ml): 1.1 | IFN-.tau. production, U/ml (murine splenocytes; 0.1 μg/ml): 33 U/ml | IFN-.tau. production, change in words (murine splenocytes; 1.0 μg/ml): doubled | IFN-.tau. production, Stimulation index (murine splenocytes; 1.0 μg/ml): 1.9 | IFN-.tau. production, U/ml (murine splenocytes; 1.0 μg/ml): 60 U/ml | IFN-.tau. production, Stimulation index (murine splenocytes; 10.0 μg/ml): 1.6 | IFN-.tau. production, U/ml (murine splenocytes; 10.0 μg/ml): 49 U/ml | nitric oxide, Stimulation index (murine peritoneal cells; 0.01 μg/ml): 2.2 | nitric oxide content (murine peritoneal cells; 0.01 μg/ml): 43 nmol/mL | nitric oxide, Stimulation index (murine peritoneal cells; 0.1 μg/ml): 3.0 | nitric oxide content (murine peritoneal cells; 0.1 μg/ml): 59 nmol/mL | nitric oxide, Stimulation index (murine peritoneal cells; 1.0 μg/ml): 3.9 | nitric oxide content (murine peritoneal cells; 1.0 μg/ml): 77 nmol/mL | nitric oxide, Stimulation index (murine peritoneal cells; 10.0 μg/ml): 2.9 | nitric oxide content (murine peritoneal cells; 10.0 μg/ml): 57 nmol/mL | survival percentage (BALB/C mice; 0.62 ug/mouse): about 65% | survival percentage (BALB/C mice; 6.2 ug/mouse): about 65% | % reduction of infection (Leishmania major; 0.1 μg/ml (minimum dose used)): over 70% | % reduction of infection (Leishmania major; 0.1 μg/ml (minimum dose used), listed as Es. 1): 72% | cpm (counts per minute), 3H-thymidine incorporation by living parasites (Leishmania major; 0.1 μg/ml): 5,096 cpm | % reduction of infection (Leishmania major; 1.0 μg/ml): 79% | cpm (counts per minute), 3H-thymidine incorporation by living parasites (Leishmania major; 1.0 μg/ml): 3,783 cpm | % reduction of infection (Leishmania major; 10.0 μg/ml): 77% | cpm (counts per minute), 3H-thymidine incorporation by living parasites (Leishmania major; 10.0 μg/ml): 4,292 cpm
